Data published in ChEMBL document CHEMBL4038270, “Synthesis of heterocyclic ring-fused tricyclic diterpene analogs as novel inhibitors of RANKL-induced osteoclastogenesis and bone resorption” (Eur J Med Chem, 2017).

Legend:
[1] = Inhibition of RANKL-induced C57BL/6 mouse bone marrow monocytes differentiation into osteoclasts after 6 days in presence of M-CSF by tartrate-resistant acid phosphatase staining based assay; assay type: functional, cell-based; settings: C57BL/6, Bone marrow monocyte, 144 h
[2] = Inhibition of RANKL-induced C57BL/6 mouse bone marrow monocytes differentiation into osteoclasts at 10 uM after 6 days in presence of M-CSF by tartrate-resistant acid phosphatase staining based assay relative to control; assay type: functional; settings: C57BL/6, Bone marrow monocyte, 144 h
[3] = Inhibition of RANKL-induced C57BL/6 mouse bone marrow monocytes differentiation into osteoclasts at 0.5 uM after 6 days in presence of M-CSF by tartrate-resistant acid phosphatase staining based assay relative to control; assay type: functional; settings: C57BL/6, Bone marrow monocyte, 144 h
[4] = Inhibition of RANKL-induced C57BL/6 mouse bone marrow monocytes differentiation into osteoclasts at 2 uM after 6 days in presence of M-CSF by tartrate-resistant acid phosphatase staining based assay relative to control; assay type: functional; settings: C57BL/6, Bone marrow monocyte, 144 h
[5] = Inhibition of RANKL-induced C57BL/6 mouse bone marrow monocytes differentiation into osteoclasts at 0.1 uM after 6 days in presence of M-CSF by tartrate-resistant acid phosphatase staining based assay relative to control; assay type: functional; settings: C57BL/6, Bone marrow monocyte, 144 h
[6] = Inhibition of RANKL-induced C57BL/6 mouse bone marrow macrophage differentiation into osteoclasts in presence of M-CSF by tartrate-resistant acid phosphatase staining based assay; assay type: functional, cell-based; settings: C57BL/6, BMDM
[7] = Potency index, ratio of maslinic acid IC50 to compound IC50 for RANKL-induced C57BL/6 mouse bone marrow monocytes differentiation into osteoclasts; assay type: functional, Bone marrow monocyte

COc1ccc2c(c1)[C@@]1(C)Cc3cnoc3C(C)(C)[C@@H]1CC2
IC50 [1]: 7.5 µM | inhibition at 10 µM [2]: 59.1% | inhibition at 0.5 µM [3]: 1.5% | inhibition at 2 µM [4]: 15.9%

COC(=O)c1noc2c1C[C@]1(C)c3cc(OC)ccc3CC[C@H]1C2(C)C
inhibition at 10 µM [2]: 100% | inhibition at 0.5 µM [3]: 34.8% | inhibition at 2 µM [4]: 43.7%

CCNC(=O)c1noc2c1C[C@]1(C)c3cc(OC)ccc3CC[C@H]1C2(C)C
inhibition at 10 µM [2]: 84.3% | inhibition at 0.5 µM [3]: 33.6% | inhibition at 2 µM [4]: 42.4%

CNC(=O)c1cc2c(cc1O)[C@@]1(C)Cc3nc(C)oc3C(C)(C)[C@@H]1CC2
inhibition at 0.5 µM [3]: 87.6% | inhibition at 0.1 µM [5]: 64.1% | inhibition at 2 µM [4]: 96.6%

CNC(=O)c1noc2c1C[C@]1(C)c3cc(OC)ccc3CC[C@H]1C2(C)C
inhibition at 10 µM [2]: 100% | inhibition at 0.5 µM [3]: 28.6% | inhibition at 2 µM [4]: 52.8%

COc1ccc2c(c1)[C@@]1(C)Cc3c([nH]c4ccccc34)C(C)(C)[C@@H]1CC2
inhibition at 10 µM [2]: 88.9% | inhibition at 0.5 µM [3]: 57.6% | inhibition at 2 µM [4]: 74.3%

COc1cc2c(cc1NC(C)=O)CC[C@H]1C(C)(C)c3oc(C)nc3C[C@]21C
inhibition at 0.5 µM [3]: 44.1% | inhibition at 0.1 µM [5]: 26.9% | inhibition at 2 µM [4]: 66.1%

COc1ccc2c(c1)[C@@]1(C)Cc3c(n[nH]c3C(=O)O)C(C)(C)[C@@H]1CC2
inhibition at 10 µM [2]: 56.1% | inhibition at 0.5 µM [3]: 43.9% | inhibition at 2 µM [4]: 57.2%

COc1cc2c(cc1C(=O)O)CC[C@H]1C(C)(C)c3oc(C)nc3C[C@]21C
inhibition at 0.5 µM [3]: 45.2% | inhibition at 0.1 µM [5]: 22.6% | inhibition at 2 µM [4]: 67.8%

CCCNC(=O)c1cc2c(cc1OC)[C@@]1(C)Cc3nc(C)oc3C(C)(C)[C@@H]1CC2
inhibition at 0.5 µM [3]: 62.8% | inhibition at 0.1 µM [5]: 38.1% | inhibition at 2 µM [4]: 100%

CCCOC(=O)c1noc2c1C[C@]1(C)c3cc(OC)ccc3CC[C@H]1C2(C)C
inhibition at 10 µM [2]: 100% | inhibition at 0.5 µM [3]: 34.8% | inhibition at 2 µM [4]: 41.4%

COc1ccc2c(c1)[C@@]1(C)Cc3c(C(=O)O)noc3C(C)(C)[C@@H]1CC2
inhibition at 10 µM [2]: 77.9% | inhibition at 0.5 µM [3]: 55.1% | inhibition at 2 µM [4]: 66.8%

CCC(=O)c1cc2c(cc1OC)[C@@]1(C)Cc3nc(C)oc3C(C)(C)[C@@H]1CC2
inhibition at 0.5 µM [3]: 64.1% | inhibition at 0.1 µM [5]: 32.5% | inhibition at 2 µM [4]: 91.3%

CC1(C)[C@H](O)C(=O)C[C@]2(C)[C@@H]1CC[C@]13CC4C[C@](O)(C1)[C@@H]4C[C@H]32
IC50 [6]: 15 µM

COc1cc2c(cc1C(=O)N(C)C)CC[C@H]1C(C)(C)c3oc(C)nc3C[C@]21C
inhibition at 0.5 µM [3]: 70.1% | inhibition at 0.1 µM [5]: 53.1% | inhibition at 2 µM [4]: 89.2%

COc1ccc2c(c1)[C@@]1(C)Cc3snnc3C(C)(C)[C@@H]1CC2
inhibition at 10 µM [2]: 97.2% | inhibition at 0.5 µM [3]: 66.7% | inhibition at 2 µM [4]: 76.8%

COc1ccc2c(c1)[C@@]1(C)Cc3cncnc3C(C)(C)[C@@H]1CC2
inhibition at 10 µM [2]: 99.5% | inhibition at 0.5 µM [3]: 51.1% | inhibition at 2 µM [4]: 83%

CCOC(=O)c1[nH]nc2c1C[C@]1(C)c3cc(OC)ccc3CC[C@H]1C2(C)C
inhibition at 10 µM [2]: 93.7% | inhibition at 0.5 µM [3]: 61.6% | inhibition at 2 µM [4]: 71.7%

COc1ccc2c(c1)[C@@]1(C)Cc3nc(N)sc3C(C)(C)[C@@H]1CC2
inhibition at 10 µM [2]: 98.2% | inhibition at 0.5 µM [3]: 29.8% | inhibition at 2 µM [4]: 35.8%

COc1cc2c(cc1N)CC[C@H]1C(C)(C)c3oc(C)nc3C[C@]21C
inhibition at 0.5 µM [3]: 54.8% | inhibition at 0.1 µM [5]: 27.1% | inhibition at 2 µM [4]: 77.7%

COc1ccc2c(c1)[C@@]1(C)Cc3cnc(N)nc3C(C)(C)[C@@H]1CC2
inhibition at 10 µM [2]: 96.2% | inhibition at 0.5 µM [3]: 38.6% | inhibition at 2 µM [4]: 64.6%

COc1ccc2c(c1)[C@@]1(C)Cc3c[nH]nc3C(C)(C)[C@@H]1CC2
inhibition at 10 µM [2]: 10.1% | inhibition at 0.5 µM [3]: 4.3% | inhibition at 2 µM [4]: 8.1%

COc1cc2c(cc1C(C)=O)CC[C@H]1C(C)(C)c3oc(C)nc3C[C@]21C
inhibition at 0.5 µM [3]: 64.5% | inhibition at 0.1 µM [5]: 30.6% | inhibition at 2 µM [4]: 100%

CCOC(=O)c1noc2c1C[C@]1(C)c3cc(OC)ccc3CC[C@H]1C2(C)C
inhibition at 10 µM [2]: 100% | inhibition at 0.5 µM [3]: 49.5% | inhibition at 2 µM [4]: 88.6%

COc1ccc2c(c1)[C@@]1(C)Cc3c(CO)noc3C(C)(C)[C@@H]1CC2
inhibition at 10 µM [2]: 91.4% | inhibition at 0.5 µM [3]: 43.4% | inhibition at 2 µM [4]: 51.7%

COc1ccc2c(c1)[C@@]1(C)Cc3nc(C)oc3C(C)(C)[C@@H]1CC2
IC50 [1]: 0.33 µM | inhibition at 10 µM [2]: 100% | inhibition at 0.5 µM [3]: 75% | inhibition at 0.1 µM [5]: 42.9% | Ratio IC50 [7]: 2 | inhibition at 2 µM [4]: 99.2%

COc1cc2c(cc1/C(C)=N/O)CC[C@H]1C(C)(C)c3oc(C)nc3C[C@]21C
inhibition at 0.5 µM [3]: 42.7% | inhibition at 0.1 µM [5]: 26.9% | inhibition at 2 µM [4]: 70%

COc1ccc2c(c1)[C@@]1(C)Cc3nccnc3C(C)(C)[C@@H]1CC2
inhibition at 10 µM [2]: 98.2% | inhibition at 0.5 µM [3]: 34.3% | inhibition at 2 µM [4]: 66.9%

CC1(C)[C@H](O)CC[C@]2(C)[C@@H]1CC[C@]13CC4C[C@](O)(C1)[C@@H]4C[C@H]32
IC50 [6]: 20 µM

CCCCNC(=O)c1cc2c(cc1OC)[C@@]1(C)Cc3nc(C)oc3C(C)(C)[C@@H]1CC2
inhibition at 0.5 µM [3]: 37.8% | inhibition at 0.1 µM [5]: 34.5% | inhibition at 2 µM [4]: 88.6%

COc1cc2c(cc1C(N)=O)CC[C@H]1C(C)(C)c3oc(C)nc3C[C@]21C
inhibition at 0.5 µM [3]: 30.9% | inhibition at 0.1 µM [5]: 10.2% | inhibition at 2 µM [4]: 57%

COc1ccc2c(c1)[C@@]1(C)Cc3cnc(C)nc3C(C)(C)[C@@H]1CC2
inhibition at 10 µM [2]: 98.5% | inhibition at 0.5 µM [3]: 45.2% | inhibition at 2 µM [4]: 76%

CC1(C)CC[C@]2(C(=O)O)CC[C@]3(C)C(=CC[C@@H]4[C@@]5(C)C[C@@H](O)[C@H](O)C(C)(C)[C@@H]5CC[C@]43C)[C@@H]2C1 [MASLINIC ACID]
IC50 [1]: 0.63 µM | inhibition at 10 µM [2]: 76.3% | inhibition at 0.5 µM [3]: 48.6% | inhibition at 2 µM [4]: 59.7%

CC1(C)C(=O)CC[C@]2(C)[C@@H]1CC[C@@]13C[C@@H]4[C@@H](C[C@H]12)[C@]4(C(=O)O)C3
IC50 [6]: 4 µM

CCNC(=O)c1cc2c(cc1OC)[C@@]1(C)Cc3nc(C)oc3C(C)(C)[C@@H]1CC2
inhibition at 0.5 µM [3]: 70% | inhibition at 0.1 µM [5]: 56.1% | inhibition at 2 µM [4]: 98.2%

CCCC(=O)c1cc2c(cc1OC)[C@@]1(C)Cc3nc(C)oc3C(C)(C)[C@@H]1CC2
inhibition at 0.5 µM [3]: 55.6% | inhibition at 0.1 µM [5]: 30% | inhibition at 2 µM [4]: 83.6%
